Results reported in PubChem BioAssay AID1745844 (Carcinogenic Potency Database (CPDB), 2022).

Test system: rodent lifetime carcinogenesis bioassay, tumor incidence TD50
Assay: chronic cancer bioassays in animals – CPDB, compiled studies (AID 1745844)

`C1COCCO1` gave a TD50 (mouse, strain B6C3F1, females, in drinking water, site: any site (literature study), lesion: several types, types named in the paper, dosed 90 weeks, study length 90 weeks) of 847 mg/kg/day, a TD50 (mouse, strain B6C3F1, females, in drinking water, site: liver, lesion: hepatocellular adenoma + hepatocellular carcinoma + neoplastic nodule, dosed 90 weeks, study length 90 weeks) of 594 mg/kg/day and a TD50 (mouse, strain B6C3F1, females, in drinking water, site: liver, lesion: hepatocellular adenoma + hepatocellular carcinoma, dosed 90 weeks, study length 90 weeks) of 594 mg/kg/day. For the same molecule, the TD50 (mouse, strain B6C3F1, females, in drinking water, site: liver, lesion: hepatocellular carcinoma, dosed 90 weeks, study length 90 weeks) was 938 mg/kg/day, the TD50 (mouse, strain B6C3F1, females, in drinking water, site: lung, lesion: alveolar/bronchiolar adenoma + alveolar/bronchiolar carcinoma, dosed 90 weeks, study length 90 weeks) was 71900 mg/kg/day and the TD50 (mouse, strain B6C3F1, males, in drinking water, site: all sites, lesion: hemangioma + hemangiosarcoma, dosed 90 weeks, study length 91 weeks) was 3150 mg/kg/day. For the same molecule, the TD50 (mouse, strain B6C3F1, males, in drinking water, site: all sites, lesion: lymphoma, dosed 90 weeks, study length 91 weeks) was 3930 mg/kg/day, the TD50 (mouse, strain B6C3F1, males, in drinking water, site: any site (literature study), lesion: several types, types named in the paper, dosed 90 weeks, study length 91 weeks) was 1880 mg/kg/day and the TD50 (mouse, strain B6C3F1, males, in drinking water, site: liver, lesion: hepatocellular adenoma + hepatocellular carcinoma + neoplastic nodule, dosed 90 weeks, study length 91 weeks) was 1460 mg/kg/day. The TD50 (mouse, strain B6C3F1, males, in drinking water, site: liver, lesion: hepatocellular adenoma + hepatocellular carcinoma, dosed 90 weeks, study length 91 weeks) was 1460 mg/kg/day, the TD50 (mouse, strain B6C3F1, males, in drinking water, site: liver, lesion: hepatocellular carcinoma, dosed 90 weeks, study length 91 weeks) was 1420 mg/kg/day and the TD50 (mouse, strain BDF1, females, in drinking water, site: liver, lesion: hepatocellular adenoma, dosed 104 weeks, study length 105 weeks) was 83.1 mg/kg/day. The TD50 (mouse, strain BDF1, females, in drinking water, site: liver, lesion: hepatocellular carcinoma, dosed 104 weeks, study length 105 weeks) was 404 mg/kg/day, the TD50 (mouse, strain BDF1, females, in drinking water, site: liver, lesion: several types, types named in the paper, dosed 104 weeks, study length 105 weeks) was 65.5 mg/kg/day and the TD50 (mouse, strain BDF1, females, in drinking water, site: nasal cavity, lesion: adenocarcinoma, dosed 104 weeks, study length 105 weeks) was 72100 mg/kg/day. The TD50 (mouse, strain BDF1, males, in drinking water, site: liver, lesion: hepatocellular adenoma, dosed 104 weeks, study length 105 weeks) was 519 mg/kg/day, the TD50 (mouse, strain BDF1, males, in drinking water, site: liver, lesion: hepatocellular carcinoma, dosed 104 weeks, study length 105 weeks) was 1040 mg/kg/day and the TD50 (mouse, strain BDF1, males, in drinking water, site: liver, lesion: several types, types named in the paper, dosed 104 weeks, study length 105 weeks) was 982 mg/kg/day. For the same molecule, the TD50 (mouse, strain BDF1, males, in drinking water, site: nasal cavity, lesion: esthesioneuroepithelioma, dosed 104 weeks, study length 105 weeks) was 60100 mg/kg/day, the TD50 (rat, strain Charles River CD (Sprague-Dawley), males, in drinking water, site: nasal cavity, lesion: squamous-cell carcinoma, dosed 56 weeks, study length 69 weeks) was 2950 mg/kg/day and the TD50 (rat, strain F344/DuCrj, females, in drinking water, site: liver, lesion: hepatocellular adenoma, dosed 104 weeks, study length 105 weeks) was 182 mg/kg/day. The TD50 (rat, strain F344/DuCrj, females, in drinking water, site: liver, lesion: hepatocellular carcinoma, dosed 104 weeks, study length 105 weeks) was 1120 mg/kg/day, the TD50 (rat, strain F344/DuCrj, females, in drinking water, site: liver, lesion: several types, types named in the paper, dosed 104 weeks, study length 105 weeks) was 167 mg/kg/day and the TD50 (rat, strain F344/DuCrj, females, in drinking water, site: mammary gland, lesion: adenoma, dosed 104 weeks, study length 105 weeks) was 772 mg/kg/day. The TD50 (rat, strain F344/DuCrj, females, in drinking water, site: nasal cavity, lesion: esthesioneuroepithelioma, dosed 104 weeks, study length 105 weeks) was 12200 mg/kg/day, the TD50 (rat, strain F344/DuCrj, females, in drinking water, site: nasal cavity, lesion: malignant tumor, dosed 104 weeks, study length 105 weeks) was 1430 mg/kg/day and the TD50 (rat, strain F344/DuCrj, females, in drinking water, site: nasal cavity, lesion: squamous-cell carcinoma, dosed 104 weeks, study length 105 weeks) was 1650 mg/kg/day. For the same molecule, the TD50 (rat, strain F344/DuCrj, males, in drinking water, site: liver, lesion: hepatocellular adenoma, dosed 104 weeks, study length 105 weeks) was 279 mg/kg/day, the TD50 (rat, strain F344/DuCrj, males, in drinking water, site: liver, lesion: hepatocellular carcinoma, dosed 104 weeks, study length 105 weeks) was 676 mg/kg/day and the TD50 (rat, strain F344/DuCrj, males, in drinking water, site: liver, lesion: several types, types named in the paper, dosed 104 weeks, study length 105 weeks) was 189 mg/kg/day. It also gave a TD50 (rat, strain F344/DuCrj, males, in drinking water, site: mammary gland, lesion: fibroadenoma, dosed 104 weeks, study length 105 weeks) of 3070 mg/kg/day, a TD50 (rat, strain F344/DuCrj, males, in drinking water, site: nasal cavity, lesion: esthesioneuroepithelioma, dosed 104 weeks, study length 105 weeks) of 10600 mg/kg/day and a TD50 (rat, strain F344/DuCrj, males, in drinking water, site: nasal cavity, lesion: malignant tumor, dosed 104 weeks, study length 105 weeks) of 1440 mg/kg/day. For the same molecule, the TD50 (rat, strain F344/DuCrj, males, in drinking water, site: nasal cavity, lesion: rhabdomyosarcoma, dosed 104 weeks, study length 105 weeks) was 10600 mg/kg/day, the TD50 (rat, strain F344/DuCrj, males, in drinking water, site: nasal cavity, lesion: sarcoma, NOS, dosed 104 weeks, study length 105 weeks) was 5270 mg/kg/day and the TD50 (rat, strain F344/DuCrj, males, in drinking water, site: nasal cavity, lesion: squamous-cell carcinoma, dosed 104 weeks, study length 105 weeks) was 3490 mg/kg/day. The TD50 (rat, strain F344/DuCrj, males, in drinking water, site: peritoneum, lesion: mesothelioma, dosed 104 weeks, study length 105 weeks) was 246 mg/kg/day, the TD50 (rat, strain F344/DuCrj, males, in drinking water, site: subcutaneous tissue, lesion: fibroma, dosed 104 weeks, study length 105 weeks) was 922 mg/kg/day and the TD50 (rat, strain Osborne-Mendel, females, in drinking water, site: any site (literature study), lesion: several types, types named in the paper, dosed 110 weeks, study length 111 weeks) was 40.5 mg/kg/day. For the same molecule, the TD50 (rat, strain Osborne-Mendel, females, in drinking water, site: liver + nasal turbinate, lesion: hepatocellular adenoma + squamous-cell carcinoma, dosed 110 weeks, study length 111 weeks) was 126 mg/kg/day, the TD50 (rat, strain Osborne-Mendel, females, in drinking water, site: liver, lesion: hepatocellular adenoma + hepatocellular carcinoma + neoplastic nodule, dosed 110 weeks, study length 111 weeks) was 124 mg/kg/day and the TD50 (rat, strain Osborne-Mendel, females, in drinking water, site: liver, lesion: hepatocellular adenoma, dosed 110 weeks, study length 111 weeks) was 160 mg/kg/day. The TD50 (rat, strain Osborne-Mendel, females, in drinking water, site: nasal turbinate, lesion: squamous-cell carcinoma, dosed 110 weeks, study length 111 weeks) was 476 mg/kg/day, the TD50 (rat, strain Osborne-Mendel, males, in drinking water, site: any site (literature study), lesion: several types, types named in the paper, dosed 110 weeks, study length 110 weeks) was 114 mg/kg/day and the TD50 (rat, strain Osborne-Mendel, males, in drinking water, site: liver, lesion: hepatocellular adenoma + hepatocellular carcinoma + neoplastic nodule, dosed 110 weeks, study length 110 weeks) was 796 mg/kg/day. The TD50 (rat, strain Osborne-Mendel, males, in drinking water, site: nasal turbinate, lesion: squamous-cell carcinoma, dosed 110 weeks, study length 110 weeks) was 168 mg/kg/day, the TD50 (rat, strain Sherman, both sexes, in drinking water, site: liver, lesion: hepatocellular carcinoma, dosed 104 weeks, study length 104 weeks) was 2500 mg/kg/day and the TD50 (rat, strain Sherman, both sexes, in drinking water, site: liver, lesion: several types, types named in the paper, dosed 104 weeks, study length 104 weeks) was 2120 mg/kg/day. For the same molecule, the TD50 (rat, strain Sherman, both sexes, in drinking water, site: nasal turbinate, lesion: squamous-cell carcinoma, dosed 104 weeks, study length 104 weeks) was 15900 mg/kg/day, the TD50 (rat, strain Wistar, both sexes, in drinking water, site: any site (literature study), lesion: several types, types named in the paper, dosed 63 weeks, study length 64 weeks) was 690 mg/kg/day and the TD50 (rat, strain Wistar, both sexes, in drinking water, site: liver, lesion: hepatoma, dosed 63 weeks, study length 64 weeks) was 515 mg/kg/day.
With `CCCCCN(N=O)C(N)=O` the TD50 (rat, strain Donryu, females, in drinking water, site: all sites, lesion: myelocytic leukemia, dosed 65 weeks, study length 65 weeks) was 19.9 mg/kg/day, the TD50 (rat, strain Donryu, females, in drinking water, site: any site (literature study), lesion: several types, types named in the paper, dosed 65 weeks, study length 65 weeks) was 1.93 mg/kg/day and the TD50 (rat, strain Donryu, females, in drinking water, site: digestive tract, lesion: several types, types named in the paper, dosed 65 weeks, study length 65 weeks) was 1.15 mg/kg/day. For the same molecule, the TD50 (rat, strain Donryu, females, in drinking water, site: esophagus, lesion: one or several types, types not named, dosed 65 weeks, study length 65 weeks) was 0.967 mg/kg/day, the TD50 (rat, strain Donryu, females, in drinking water, site: forestomach, lesion: one or several types, types not named, dosed 65 weeks, study length 65 weeks) was 1.35 mg/kg/day and the TD50 (rat, strain Donryu, females, in drinking water, site: liver, lesion: hepatocellular adenoma, dosed 65 weeks, study length 65 weeks) was 13.3 mg/kg/day. It also gave a TD50 (rat, strain Donryu, females, in drinking water, site: mammary gland, lesion: several types, types named in the paper, dosed 65 weeks, study length 65 weeks) of 11.9 mg/kg/day, a TD50 (rat, strain Donryu, males, in drinking water, site: all sites, lesion: myelocytic leukemia, dosed 65 weeks, study length 65 weeks) of 9.17 mg/kg/day and a TD50 (rat, strain Donryu, males, in drinking water, site: any site (literature study), lesion: several types, types named in the paper, dosed 65 weeks, study length 65 weeks) of 0.541 mg/kg/day. For the same molecule, the TD50 (rat, strain Donryu, males, in drinking water, site: digestive tract, lesion: several types, types named in the paper, dosed 65 weeks, study length 65 weeks) was 0.532 mg/kg/day, the TD50 (rat, strain Donryu, males, in drinking water, site: esophagus, lesion: one or several types, types not named, dosed 65 weeks, study length 65 weeks) was 1.44 mg/kg/day and the TD50 (rat, strain Donryu, males, in drinking water, site: forestomach, lesion: one or several types, types not named, dosed 65 weeks, study length 65 weeks) was 0.532 mg/kg/day. It also gave a TD50 (rat, strain Fischer 344, females, by gavage, site: forestomach, lesion: one or several types, types not named, dosed 50 weeks, study length 104 weeks) of 0.478 mg/kg/day, a TD50 (rat, strain Fischer 344, females, by gavage, site: liver, lesion: one or several types, types not named, dosed 50 weeks, study length 104 weeks) of 4.7 mg/kg/day and a TD50 (rat, strain Fischer 344, females, by gavage, site: lung, lesion: several types, types named in the paper, dosed 50 weeks, study length 104 weeks) of 1.09 mg/kg/day. The TD50 (rat, strain Fischer 344, females, by gavage, site: mammary gland, lesion: adenocarcinoma, dosed 50 weeks, study length 104 weeks) was 2.98 mg/kg/day, the TD50 (rat, strain Fischer 344, females, by gavage, site: uterus, lesion: several types, types named in the paper, dosed 50 weeks, study length 104 weeks) was 0.934 mg/kg/day and the TD50 (rat, strain Fischer 344, males, by gavage, site: all sites, lesion: mesothelioma, dosed 50 weeks, study length 104 weeks) was 0.865 mg/kg/day. The carcinogen call (rat, strain Fischer 344, males, by gavage, site: forestomach, lesion: one or several types, types not named, dosed 50 weeks, study length 104 weeks) was “positive” and the TD50 (rat, strain Fischer 344, males, by gavage, site: lung, lesion: several types, types named in the paper, dosed 50 weeks, study length 104 weeks) was 0.546 mg/kg/day.
